{"source": "patent US6773727B1", "about": "“Use of gossypol and related terpenes for control of urban and agricultural pests” (The United States of America as represented by the …, priority 2001, dated 2004)", "key": {"[1]": {"test_system": "tobacco budworm (Heliothis virescens [F.]) larvae", "details": "cited from earlier work; for effect on growth: at 2.5 μmoles/g diet; for effective dosage required to reduce by 50% the growth of larvae: larvae fed an artificial diet"}, "[2]": {"test_system": "tobacco budworm larval growth", "details": "in vivo; cited from earlier work"}, "[3]": {"details": "as recommended by manufacturers; pest not stated; cited from earlier work"}, "roaches": {"test_system": "roaches", "details": "as recommended by manufacturers; cited from earlier work"}, "termites": {"test_system": "termites", "assay": "Termite lab colony bait matrix test (time to 100% mortality)", "format": "in vivo, Formosan subterranean termite", "method": "Gossypol acetic acid complex, which is a commercially available pure chemical, is dissolved in 1 ml acetone (#9006-03; J. T. Baker, Phillipsburg, NJ) using a sterile container. In the pure form as gossypol acetic acid complex and at concentrations of 5 ppm, gossypol is effective when mixed with a chitin synthesis inhibitor of the benzophenyl urea family or microbes such as fungi, bacteria, or viruses, taking a mean time to kill the lab test of four months. At concentrations greater than 500 ppm, without the addition of any other chemical, gossypol acetic acid complex as an insecticide can kill the lab test colony after a mean duration of one month.\nGossypol-acetic acid complex obtained from USDA-ARS-SRCC, New Orleans, La., crude cotton seed oil [8ETX(5)], from a commercial oil mill, and a commercial cotton meal [6MTN 925 CSM] were separately incorporated into a bait matrix as described in U.S. patent application Ser. No. 09/294,499 filed Apr. 20, 1999, at concentrations of 50, 25, and 12.5 ppm respectively. […] A total of 40 mg of the gossypol acetic acid complex, 250 mg of the crude cotton seed oil, and 900 mg of the cotton seed meal were individually weighed using a Mettler balance (model PB303; Fisher Scientific, Pittsburgh, Pa.). The gossypol-acetic acid complex was placed into a 50 ml sterile screw cap conical tube (#62.547.004; Sarstedt, Newton, N.C.) and dissolved with 1 ml acetone (#9006-03; J. T. Baker, Phillipsburg, N.J.).\nUnder a laminar flow hood, the gossypol acetone solution was mixed with 40 ml of sterile nutritional supplement containing 150 ppm of chitin inhibitors (prepared as reported by Rojas, M. G. and Morales-Ramos, J. A., Apr. 2001, “Bait matrix for delivery of chitin synthesis inhibitors to the Formosan subterranean termite [Isoptera: Rhinotermitidae],” J. Econ. Entomol. 94(2):506-510). The tube was tightly closed with a screw cap and manually shaken for 30 seconds. The mixture was added to 100 g of sterile cellulose as reported by Rojas and Morales-Ramos (2001) supra. The cotton seed oil was mixed with 300 ml of supplement and mixed with the sterile cellulose. The cotton seed meal was mixed and homogenized with the sterile cellulose, and then the 300 ml nutritional supplement was added. Each mixture was manually homogenized using a stainless steel spatula.\nThe mixtures were prepared as reported above for gossypol-chitin inhibitors, but without the addition of the chitin inhibitors. The fungal spores (400 mg) (Bio-Blast, EcoScience, Orlando, Fla.) were homogenized with the sterile cellulose, then the 300 ml of supplement gossypol-containing solution was added.\nTo encase the bait matrix, tubes made of fibrous casing material (#124B; L. E. M. Products, Inc., Miamitown, Ohio) were cut into 150 mm long portions as reported by Rojas and Morales-Ramos (2001) supra. Fifty grams of bait matrix containing a mixture of a single gossypol source and a single chitin synthesis inhibitor, or single gossypol source and fungal spores, were compacted into one end of the inlet tube, at which point the open end of the inlet tube was closed with a rubber band. The bait casing was placed inside of the foraging box adjacent to a 10 g piece of pine wood, taking care that they were partially covered with the sand. […]\nAll the experimental boxes were maintained under dark at 29±2° C., and 75±2% relative humidity. […] The time to reach 100% mortality was measured and recorded. […]"}, "tobacco budworms": {"test_system": "tobacco budworms", "details": "cited from earlier work"}, "protease": {"test_system": "protease", "details": "cotton leafworm (S. littoralis); cited from earlier work"}, "[4]": {"test_system": "silverleaf whitefly (Bemisia argentifolii Bellows and Perring)", "details": "in vivo; cited from earlier work"}, "bollworms": {"test_system": "bollworms", "details": "0.15% gossypol in an artificial diet; regular diet 54.5%; cited from earlier work"}, "amylase": {"test_system": "amylase", "details": "cotton leafworm (S. littoralis); cited from earlier work"}, "[5]": {"test_system": "Spiny bollworm (Earias insulana Boisduval)", "details": "cited from earlier work"}, "[6]": {"test_system": "cotton leafworm (Spodoptera littoralis [Boisduval])", "details": "cited from earlier work"}, "invertase": {"test_system": "invertase", "details": "cotton leafworm (S. littoralis); cited from earlier work"}, "[7]": {"test_system": "tobacco budworm neonate larvae", "details": "nine days, cited from earlier work"}, "ants": {"test_system": "ants", "details": "as recommended by manufacturers; cited from earlier work"}, "subterranean termites": {"test_system": "subterranean termites", "details": "as recommended by manufacturers; cited from earlier work"}}, "note": "Like-named read-outs stand apart in the source and are kept apart here.", "data": [{"molecule": "COc1c(O)c(C=O)c2c(c1C(C)C)C(=O)C(C)=CC2=O", "note": "[Hemigossypolone-6-methyl ether]", "values": [{"measurement": "effect on growth", "setting": "[1]", "result": "no effect on growth"}]}, {"molecule": "C=C1CC[C@H]2O[C@]2(C)CC[C@@H]2[C@@H]1CC2(C)C", "note": "[caryophyllene oxide]", "values": [{"measurement": "interaction with gossypol in retarding larval growth", "setting": "[2]", "result": "interacts synergistically"}]}, {"molecule": "O=C(NC(=O)c1c(F)cccc1F)Nc1cc(Cl)c(Oc2ncc(C(F)(F)F)cc2Cl)c(Cl)c1", "note": "[chlorfuazuron]", "values": [{"measurement": "lethal amount", "setting": "[3]", "result": "about 0.5%"}]}, {"molecule": "O=C(NC(=O)c1c(F)cccc1F)Nc1ccc(Cl)cc1", "note": "[diflubenzuron]", "values": [{"measurement": "lethal amount", "setting": "[3]", "result": "about 0.250%"}]}, {"molecule": "N#Cc1nn(-c2c(Cl)cc(C(F)(F)F)cc2Cl)c(N)c1[S+]([O-])C(F)(F)F", "note": "(stereo not drawn) [fipronil]", "values": [{"measurement": "lethal amount", "setting": "roaches", "result": "about 0.05%"}]}, {"molecule": "CC(=O)O.Cc1cc2c(C(C)C)c(O)c(O)c(C=O)c2c(O)c1-c1c(C)cc2c(C(C)C)c(O)c(O)c(C=O)c2c1O", "note": "[gossypol acetic acid complex, Gossypol acetic acid complex]", "values": [{"measurement": "mean time to kill the lab test", "setting": "termites; 5 ppm, mixed with a chitin synthesis inhibitor of the benzophenyl urea family or microbes", "result": "four"}, {"measurement": "time to mortality of a 1000-worker colony", "setting": "termites; 500 ppm, not mixed with any other chemicals, fungi, or bacteria", "result": "about 2.5 weeks"}, {"measurement": "mean duration to kill the lab test colony", "setting": "termites; concentrations greater than 500 ppm, without any other chemical", "result": "one"}, {"measurement": "dose sufficient to weaken the termites and allow other chemicals or microorganisms to induce mortality", "setting": "termites; preliminary results, doses from 5 to 500 ppm, mortality in about two months, no signs of repellency", "result": 100, "unit": "ppm"}]}, {"molecule": "Cc1cc2c(C(C)C)c(O)c(O)c(C=O)c2c(O)c1-c1c(C)cc2c(C(C)C)c(O)c(O)c(C=O)c2c1O", "note": "[gossypol]", "values": [{"measurement": "food consumption", "setting": "tobacco budworms; gossypol 0.30%, 5- and 8-day-old larvae", "result": "impaired"}, {"measurement": "food utilization", "setting": "tobacco budworms; gossypol at the 0.15% level", "result": "did not measurably affect food utilization"}, {"measurement": "protease activity", "setting": "protease", "result": "inhibits"}, {"measurement": "honeydew production", "setting": "[4]", "result": "did not affect"}, {"measurement": "mortality", "setting": "[4]", "result": "did not affect"}, {"measurement": "time until experimental colonies were dead", "setting": "termites; gossypol with the chitin inhibitor in bait matrix, control boxes (no gossypol) still alive", "result": "about two"}, {"measurement": "food utilization", "setting": "bollworms", "result": 42.5, "unit": "%"}, {"measurement": "effective dosage required to reduce by 50% the growth of larvae", "setting": "[1]", "result": 0.8, "unit": "μmoles/g diet"}, {"measurement": "amylase activity", "setting": "amylase", "result": "inhibits"}, {"measurement": "pupated", "setting": "[5]; bolls containing 0.58% gossypol", "result": 45, "unit": "%"}, {"measurement": "pupated", "setting": "[5]; bolls containing 2.34% gossypol", "result": 9, "unit": "%"}, {"measurement": "mortality", "setting": "[6]; 0.5% gossypol in the diet, after 10 days", "result": "~70", "unit": "%"}, {"measurement": "larvae eventually pupated", "setting": "[6]; 0.5% gossypol in the diet", "result": 0.3, "unit": "%"}, {"measurement": "feeding", "setting": "[6]; 1.0% gossypol in the diet", "result": "strongly suppressed feeding"}, {"measurement": "invertase activity", "setting": "invertase", "result": "does not affect"}, {"measurement": "larval size relative to control", "setting": "[7]; 0.02% gossypol in artificial diet", "result": 98, "unit": "%"}, {"measurement": "larval weight relative to controls", "setting": "[7]; 0.06% gossypol in the diet", "result": 63, "unit": "%"}, {"measurement": "larval weight relative to controls", "setting": "[7]; 0.2% gossypol in the diet", "result": 13, "unit": "%"}]}, {"molecule": "COc1c(O)c(C=O)c2c(c1C(C)C)C(=O)C1(C)CC=C(C)C(CC=C(C)C)C1C2=O", "note": "(stereo not drawn) [heliocide B1]", "values": [{"measurement": "effective dosage required to reduce by 50% the growth of larvae", "setting": "[1]", "result": 4.6, "unit": "μmoles/g diet"}]}, {"molecule": "COc1c(O)c(C=O)c2c(c1C(C)C)C(=O)C1(C)CC=C(CCC=C(C)C)CC1C2=O", "note": "(stereo not drawn) [heliocide B2]", "values": [{"measurement": "effect on growth", "setting": "[1]", "result": "no effect on growth"}]}, {"molecule": "COc1c(O)c(C=O)c2c(c1C(C)C)C(=O)C1(C)CC(CCC=C(C)C)=CCC1C2=O", "note": "(stereo not drawn) [heliocide B3]", "values": [{"measurement": "effect on growth", "setting": "[1]", "result": "no effect on growth"}]}, {"molecule": "CC(C)=CCC1C(C)=CCC2(C)C(=O)c3c(c(C=O)c(O)c(O)c3C(C)C)C(=O)C12", "note": "(stereo not drawn) [heliocide H1]", "values": [{"measurement": "effective dosage required to reduce by 50% the growth of larvae", "setting": "[1]", "result": 2.5, "unit": "μmoles/g diet"}]}, {"molecule": "CC(C)=CCCC1=CC[C@]2(C)C(=O)c3c(c(C=O)c(O)c(O)c3C(C)C)C(=O)[C@@H]2C1", "note": "[heliocide H2]", "values": [{"measurement": "effective dosage required to reduce by 50% the growth of larvae", "setting": "[1]", "result": 11.2, "unit": "μmoles/g diet"}]}, {"molecule": "CC(C)=CCCC1=CC[C@H]2C(=O)c3c(C=O)c(O)c(O)c(C(C)C)c3C(=O)[C@@]2(C)C1", "note": "[heliocide H3]", "values": [{"measurement": "effective dosage required to reduce by 50% the growth of larvae", "setting": "[1]", "result": 3.9, "unit": "μmoles/g diet"}]}, {"molecule": "CC1=CC(=O)c2c(C=O)c(O)c(O)c(C(C)C)c2C1=O", "note": "[hemigossypolone]", "values": [{"measurement": "effective dosage required to reduce by 50% the growth of larvae", "setting": "[1]", "result": 10.5, "unit": "μmoles/g diet"}]}, {"molecule": "O=C(NC(=O)c1c(F)cccc1F)Nc1cc(Cl)c(OC(F)(F)C(F)F)c(Cl)c1", "note": "[hexaflumuron]", "values": [{"measurement": "lethal amount", "setting": "[3]", "result": "about 0.5%"}]}, {"molecule": "CC1(C)CNC(=NN=C(/C=C/c2ccc(C(F)(F)F)cc2)/C=C/c2ccc(C(F)(F)F)cc2)NC1", "note": "[hydramethylnon]", "values": [{"measurement": "lethal amount", "setting": "ants", "result": "about 1.0%"}, {"measurement": "lethal amount", "setting": "subterranean termites", "result": "about 0.030%"}]}, {"molecule": "O=[N+]([O-])NC1=NCCN1Cc1ccc(Cl)nc1", "note": "[imidacloprid]", "values": [{"measurement": "lethal amount", "setting": "roaches", "result": "about 2.15%"}]}, {"molecule": "caryophyllene", "values": [{"measurement": "interaction with gossypol in retarding larval growth", "setting": "[2]", "result": "does not act synergistically"}]}]}
